Consider 26 compounds from patent US20250026762A1, “FUSED PYRAZOLE UREA ANALOGS AS GLUCOSYLCERAMIDE SYNTHASE INHIBITORS” (Merck Sharp & Dohme LLC, priority 2021, published 2025).

glucosylceramide synthase (GCS) enzyme in Golgi preparations from human A375 malignant melanoma skin cells, sequence (Q16739 whole entry): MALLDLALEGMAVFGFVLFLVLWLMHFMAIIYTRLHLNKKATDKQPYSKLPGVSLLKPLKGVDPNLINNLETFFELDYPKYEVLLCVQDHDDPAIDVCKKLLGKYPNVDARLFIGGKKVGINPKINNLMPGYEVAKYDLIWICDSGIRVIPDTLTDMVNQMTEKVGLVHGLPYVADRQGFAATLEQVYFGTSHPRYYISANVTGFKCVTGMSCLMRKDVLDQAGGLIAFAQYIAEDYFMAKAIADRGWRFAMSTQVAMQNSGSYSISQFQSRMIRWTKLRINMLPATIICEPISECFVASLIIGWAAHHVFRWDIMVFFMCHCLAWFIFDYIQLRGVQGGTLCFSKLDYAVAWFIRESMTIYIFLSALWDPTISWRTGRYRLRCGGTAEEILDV

One test has as its target glucosylceramide synthase (GCS) enzyme in Golgi preparations from human A375 malignant melanoma skin cells (Homo sapiens (Human), UniProt Q16739). Briefly: UDP-Glo glucosylceramide synthase biochemical assay. The settings on record: 1.5 μg crude golgi preparation; C6 ceramide and UDP-glucose at 2×Km; 20 h incubation at room temperature; luminescence. The source says: UDP-Glo™ Glucosylceramide Synthase Biochemical Assay
A UDP-Glo™ glucosylceramide synthase biochemical assay was utilized to evaluate the effect of test compounds on the activity of endogenous levels of GCS enzyme contained within Golgi preparations isolated from human A375 malignant melanoma skin cells. The UDP-Glo™ glucosylceramide synthase assay uses UDP-Glucose as a nucleotide-glycosyl donor and ceramide as substrate acceptor molecules. In the reaction, glucosylceramide synthase (GCS) transfers glucose from UDP-Glucose to ceramide. Glucosylceramide and UDP are released as products.
Using Promega's UDP-Glo™ Glycosyltransferase assay kit (Promega Corporation, Madison, WI, USA (Promega)), GCS activity was indirectly measured by detecting the amount of UDP produced. An aliquot of GCS enzyme (1.5 μg crude golgi preparation, total protein) and titrated test compound were aliquoted to each well and incubated for 30 minutes at room temperature. Substrate mixture was prepared by mixing C6 ceramide (Avanti Polar Lipids, Alabaster, AL USA (Avanti)) (micelles prepared at 0.6 mM in 0.6 mM DOPC) and UDP-glucose (20 μM; Promega), at concentrations equivalent to 2×Km, in assay buffer (25 mM HEPES (pH 7.5), 50 mM KCl, 5 mM MgCl2). An equivalent volume of substrate mixture was then added to each well. Following a 20 h incubation at room temperature to allow for GCS turnover of substrate, an equal volume of UDP detection reagent (Promega) was added to each well and incubated for an additional 75 minutes at room temperature to simultaneously convert the accumulated UDP product into ATP and generate light in a luciferase reaction. The generated light was detected using a luminometer. […] luminescence values (RLUs) were normalized to mean “min” and “max” effects, as determined on each plate. “Min” was defined as the mean of the values of the wells treated with vehicle (DMSO) and which represent 0% inhibition; “max” was defined as the mean of the values of the wells treated with a reference inhibitor and which represent the 100% effect. Values for % Emax and EC50 were determined by best-fitting the normalized data to a curve in Activity Base along a four-parameter logistic nonlinear regression (4PL) model (based on the Levenberg-Marquardt algorithm and defined by the equation below): […]
where: n is 4PMin (bottom of the curve); m is 4PMax (top of the curve); i is IP (inflection point of curve); andp is slope. See Levenberg, K., “A Method for the Solution of Certain Problems in Least Squares”, Quart. Appl. Math. 2, (1944), pp 164-168 and Marquardt, D., “An Algorithm for Least Squares Estimation on Nonlinear Parameters”, SIAM J. Appl. Math. 11, (1963) pp 431-441.
What is called EC50 is the midpoint of the concentration-response curve. A high value points to a less potent agent. For the compound `COc1nccc(-c2nn(C(=O)N3CCN4CCC3CC4)c3c2CCC3)c1Cl` [Compound 40, [3-(3-chloro-2-methoxy-4-pyridyl)-5,6-dihydro-4H-cyclopenta[c]pyrazol-1-yl]-(1,4-diazabicyclo[3.2.2]nonan-4-yl)methanone], a half-maximal effect (EC50) was put at 1.2 nM.
Same read-out and setting: the figure for `COc1cccc(-c2nn(C(=O)N3CCN4CCC3CC4)c3c2CCC3)c1F` [Compound 41, 1,4-diazabicyclo[3.2.2]nonan-4-yl-[3-(2-fluoro-3-methoxy-phenyl)-5,6-dihydro-4H-cyclopenta[c]pyrazol-1-yl]methanone] is 0.5 nM; for `O=C(N1CCN2CCC1CC2)n1nc(-c2ccc(F)c(F)c2F)c2c1CCOC2` [Compound 42, (1,4-diazabicyclo[3.2.2]nonan-4-yl)(3-(2,3,4-trifluorophenyl)-6,7-dihydropyrano[4,3-c]pyrazol-1(4H)-yl)methanone] it is 0.9 nM.
Regarding `O=C(N1CCN2CCC1CC2)n1nc(-c2ccc3c(c2)CCO3)c2c1CCC2` [Compound 43, 1,4-diazabicyclo[3.2.2]nonan-4-yl-[3-(2,3-dihydrobenzofuran-5-yl)-5,6-dihydro-4H-cyclopenta[c]pyrazol-1-yl]methanone], the EC50 came to 0.5 nM.
`COc1ccc(F)c(-c2nn(C(=O)N3CCN4CCC3CC4)c3c2CCC3)c1` [Compound 44, 1,4-diazabicyclo[3.2.2]nonan-4-yl-[3-(2-fluoro-5-methoxy-phenyl)-5,6-dihydro-4H-cyclopenta[c]pyrazol-1-yl]methanone]: the EC50 was 1.7 nM.
Compound `O=C(N1CCN2CCC1CC2)n1nc(-c2cc(F)c(F)cc2F)c2c1CCOC2` [Compound 45, (1,4-diazabicyclo[3.2.2]nonan-4-yl)(3-(2,4,5-trifluorophenyl)-6,7-dihydropyrano[4,3-c]pyrazol-1(4H)-yl)methanone] showed an EC50 of 2.3 nM.
`O=C(N1CCN2CCC1CC2)n1nc(-c2cc(F)c(F)c(F)c2)c2c1CCOC2` [Compound 46, (1,4-diazabicyclo[3.2.2]nonan-4-yl)(3-(3,4,5-trifluorophenyl)-6,7-dihydropyrano[4,3-c]pyrazol-1(4H)-yl)methanone]: the EC50 was 4.6 nM.
Same read-out and setting: the figure for `COc1ncc(-c2nn(C(=O)N3CCN4CCC3CC4)c3c2COCC3)cc1Cl` [Compound 47, (1,4-diazabicyclo[3.2.2]nonan-4-yl)(3-(5-chloro-6-methoxypyridin-3-yl)-6,7-dihydropyrano[4,3-c]pyrazol-1(4H)-yl)methanone] is 8.3 nM; for `O=C(N1CCN2CCC1CC2)n1nc(-c2ccc(Cl)cn2)c2c1CCOC2` [Compound 48, (1,4-diazabicyclo[3.2.2]nonan-4-yl)(3-(5-chloropyridin-2-yl)-6,7-dihydropyrano[4,3-c]pyrazol-1(4H)-yl)methanone] it is 2 nM.
`O=C(N1CCN2CCC1CC2)n1nc(-c2cc(Cl)c(F)cn2)c2c1COCC2` [Compound 49, (1,4-diazabicyclo[3.2.2]nonan-4-yl)(3-(4-chloro-5-fluoropyridin-2-yl)-4,7-dihydropyrano[3,4-c]pyrazol-1(5H)-yl)methanone] showed an EC50 of 8.3 nM.
As for `O=C(N1CCN2CCC1CC2)n1nc(-c2ccc(F)c(Cl)c2)c2c1COC2` [Compound 50, (1,4-diazabicyclo[3.2.2]nonan-4-yl)(3-(3-chloro-4-fluorophenyl)-4,6-dihydro-1H-furo[3,4-c]pyrazol-1-yl)methanone], it took 14.9 nM to reach a half-maximal effect (EC50).
`O=C(N1CCN2CCC1CC2)n1nc(N2CCC(F)(F)CC2)c2c1CCC2` [Compound 51, (1,4-diazabicyclo[3.2.2]nonan-4-yl)(3-(4,4-difluoropiperidin-1-yl)-5,6-dihydrocyclopenta[c]pyrazol-1(4H)-yl)methanone]: the midpoint of the response, the EC50, lay at 7 nM.
The compound `O=C(N1CCN2CCC1CC2)n1nc(N2CCC3(CC2)CC3)c2c1COCC2` [Compound 52, (3-(6-azaspiro[2.5]octan-6-yl)-4,7-dihydropyrano[3,4-c]pyrazol-1(5H)-yl)(1,4-diazabicyclo[3.2.2]nonan-4-yl)methanone] returned a 50% effective concentration (EC50) of 18.3 nM.
Same read-out and setting: for `O=C(N1CCN2CCC1CC2)n1nc(-n2cc(C(F)(F)F)cn2)c2c1COCC2` [Compound 53, (1,4-diazabicyclo[3.2.2]nonan-4-yl)(3-(4-(trifluoromethyl)-1H-pyrazol-1-yl)-4,7-dihydropyrano[3,4-c]pyrazol-1(5H)-yl)methanone] the value was 4.1 nM; for `O=C(N1CCN2CCC1CC2)n1nc(-n2cc(C(F)(F)F)cn2)c2c1CCC2` [Compound 54, (1,4-diazabicyclo[3.2.2]nonan-4-yl)(3-(4-(trifluoromethyl)-1H-pyrazol-1-yl)-5,6-dihydrocyclopenta[c]pyrazol-1(4H)-yl)methanone], 0.8 nM; for `O=C(N1CCN2CCC1CC2)n1nc(-n2cc(Cl)cn2)c2c1COCC2` [Compound 55, (1,4-diazabicyclo[3.2.2]nonan-4-yl)(3-(4-chloro-1H-pyrazol-1-yl)-4,7-dihydropyrano[3,4-c]pyrazol-1(5H)-yl)methanone], 10.4 nM.
As to `O=C(N1CCN2CCC1CC2)n1nc(-n2cc(Cl)cn2)c2c1CCC2` [Compound 56, (1,4-diazabicyclo[3.2.2]nonan-4-yl)(3-(4-chloro-1H-pyrazol-1-yl)-5,6-dihydrocyclopenta[c]pyrazol-1(4H)-yl)methanone], it took 3 nM to reach a half-maximal effect (EC50).
The same measure, in the same setting: for `Cc1cnn(-c2nn(C(=O)N3CCN4CCC3CC4)c3c2CCC3)c1` [Compound 57, (1,4-diazabicyclo[3.2.2]nonan-4-yl)(3-(4-methyl-1H-pyrazol-1-yl)-5,6-dihydrocyclopenta[c]pyrazol-1(4H)-yl)methanone] the value was 9.2 nM; for `COc1cnn(-c2nn(C(=O)N3CCN4CCC3CC4)c3c2CCC3)c1` [Compound 58, (1,4-diazabicyclo[3.2.2]nonan-4-yl)(3-(4-methoxy-1H-pyrazol-1-yl)-5,6-dihydrocyclopenta[c]pyrazol-1(4H)-yl)methanone], 10 nM; for `O=C(N1CCN2CCC1CC2)n1nc(-n2cc(C(F)(F)F)cn2)c2c1CCOC2` [Compound 59, (1,4-diazabicyclo[3.2.2]nonan-4-yl)(3-(4-(trifluoromethyl)-1H-pyrazol-1-yl)-6,7-dihydropyrano[4,3-c]pyrazol-1(4H)-yl)methanone], 3.1 nM.
The compound `O=C(N1CCN2CCC1CC2)n1nc(-n2cc(Cl)cn2)c2c1CCOC2` [Compound 60, (1,4-diazabicyclo[3.2.2]nonan-4-yl)(3-(4-chloro-1H-pyrazol-1-yl)-6,7-dihydropyrano[4,3-c]pyrazol-1(4H)-yl)methanone] registered an EC50 of 4.8 nM. Compared with the last compound, the EC50 is about 1.5-fold higher.
On the same count and under the same terms, the figure for `O=C(N1CCN2CCC1CC2)n1nc(-n2cc(C(F)(F)F)cn2)c2c1[C@H]1C[C@H]1C2` [Compound 61, (1,4-diazabicyclo[3.2.2]nonan-4-yl)((4aS,5aS)-3-(4-(trifluoromethyl)-1H-pyrazol-1-yl)-4,4a,5,5a-tetrahydro-1H-cyclopropa[4,5]cyclopenta[1,2-c]pyrazol-1-yl)methanone] is 0.1 nM; for `CC1CCOc2c1c(-c1ccc(F)cc1)nn2C(=O)N1CCN2CCC1CC2` (stereo not drawn) [Compound 62, R and S-(1,4-diazabicyclo[3.2.2]nonan-4-yl)(3-(4-fluorophenyl)-4-methyl-5,6-dihydropyrano[2,3-c]pyrazol-1(4H)-yl)methanone] it is 7.7 nM.
Compound `CC1CCc2c(-c3ccc(F)cc3)nn(C(=O)N3CCN4CCC3CC4)c2O1` (stereo not drawn) [Compound 63, R and S-(1,4-diazabicyclo-[3.2.2]nonan-4-yl)(3-(4-fluorophenyl)-6-methyl-5,6-dihydropyrano[2,3-c]pyrazol-1(4H)-yl)methanone] gave a concentration giving a half-maximal response (EC50) of 17.5 nM.
`Cc1c(-c2ccc(F)cc2)nn(C(=O)N2CCN3CCC2CC3)c1C` [Compound 64, (1,4-diazabicyclo[3.2.2]nonan-4-yl)(3-(4-fluorophenyl)-4,5-dimethyl-1H-pyrazol-1-yl)methanone] gave an EC50 of 8.8 nM. Compared with the last compound, the EC50 is about 2-fold lower.

Another test deals with GD and PD patient-derived induced pluripotent stem cell (iPSC) neurons.
Test: not given
To be noted: Zunke, F. et al., Neuron 2018; cited from earlier work.
On to `CCCCCCCC(=O)N[C@H](CN1CCCC1)[C@H](O)c1ccc2c(c1)OCCO2` [eliglustat, Eliglustat], for which the “formation of pathological α-synuclein aggregates” value was “reverse the formation of pathological α-synuclein aggregates”.
